# In patent US20170327789A1, “Modulation of Dopamine Receptor to Promote Neural Cell Differentiation” (The Hospital for Sick Children, priority 2014, published 2017):
# Experiments:
# [1] = tested on: human fetal NSC (hf5205); experiment: Immunocytochemistry for Vglut1 after 3 weeks differentiation; type: cell-based; conditions: 2-step growth withdrawal
# Method: Antibodies included: Beta-III tubulin (1:100 MAB1637), GFAP (1:1000, DAKO), Vglut1 (1:1000, Synaptic system), GABA (1:1000, Sigma). Appropriate fluorescent-conjugated secondary antibodies were used at 1:500 for 1 h at room temperature. Coverslips were mounted with fluorescent mounting medium (DAKO) containing DAPI (1:1000) and cells were imaged using Leica microscope. Hit validation for differentation. All retests for differentiation were done by a two step growth withdrawal method (as described in Sun et al. Mol. Cell. Neurosci. 38(2008) 245-258) with and without the test compound for 8 days. […] Immunocytochemistry was performed for a series of antibodies marking different classes of neurons based on their neurotransmitters including glutamatergic, dopaminergic, cholinergic and serotonergic. […] Vglut1 is a vesicular glutamate transporter required for transport of glutamate into synaptic vesicles of glutamatergic neurons.
# [2] = tested on: Hf5205 cells; experiment: Single cell qPCR (Fluidigm analysis) of differentiated cells; type: cell-based, human; conditions: 3.5 μM, three weeks
# Method: Single Cell qPCR (Fluidigm Analysis). Differentiated hfNS (hf5205) at week 3 was accutased and cells were resuspended in NS medium containing 1 μg per ml of propidium iodide and filtered through a 40 μm nylon cell strainer followed by live single cell sorting into a 96 well qPCR plate on a BD cell sorter. Cells were sorted into 10 μl of preamplification mix containing 40 nM of all primers for the 48 genes, and the following components of CellsDirect One-Step qRT-PCR kit (Invitrogen) as directed in protocol: 2× reaction mix, SuperScript III RT/platinum Taq mix. After sorting, samples were reverse transcribed and preamplified for 18 cycles. Preamplified samples were diluted (2×) with TE buffer and stored at −20° C. Sample and assay primer preparation for Fluidigm Dynamic arrays was done according to the manufacturer's recommendation. Samples were mixed with 2× assay loading reagent (Fluidigm Corp), 20× EvaGreen and TaqMan gene expression master mix. The Fluidigm Dynamic arrays were primed and loaded on the IFC controller and qPCR experiments were run on a Biomark system for genetic analysis.
# Fluidigm Analysis. Hf5205 cells were differentiated in the two-step growth withdrawal method, with and without L-741,742 (3.5 μM) for three weeks. The differentiated cells were harvested and filtered through a 40 uM nylon filter and live sort single cell (based on PI staining) into a 96 well qRT-PCR plate containing pre-amplification mix of 48 primers, reverse transcribed and amplified for 48 genes (as described in Pasca et al. Nature Medicine (2011) November 27; 17(12) 1657-62) in one step using a kit from Invitrogen. Samples and primer pairs were prepared for Fluidigm as per protocol. Cells were identified based on presence of RPS18 and GAPDH, Data was analyzed based on population of cells expressing particular genes using different CT value cut off.
# Characterization of L-741,742-differentiated cells by Fluidigm analysis. To further characterize the different population of neurons in L-741,742 differentiated culture, a single cell Fluidigm array was employed that can perform multiple qRT-PCR (48 genes or 96 genes) at a single cell level as shown in FIG. 6. Forty eight (48) gene primers marking various cell populations were used including, early progenitor marking dorsal, ventral or midbrain, differentiated neuronal markers based on neurotransmitters GABA or glutamatergic and markers specifying different cortical layers. Primer sequences were obtained from Pasca et al. Nature Medicine (2011) November 27; 17(12) 1657-62).
# [3] = tested on: human fetal NSC; experiment: RT-qPCR gene expression of neuronal lineage and cortical layer markers in differentiated cells; type: cell-based
# Method: Hit validation for differentation. All retests for differentiation were done by a two step growth withdrawal method (as described in Sun et al. Mol. Cell. Neurosci. 38(2008) 245-258) with and without the test compound for 8 days. Test compounds included L-741,742 (3 μM), PNU96415E (15 μM), Ifenprodil tartrate (1.5 μM), McN A-343 (4 μM), and (−) —N-Phenylcarbamoyleseroline (6 μM). For mature neuronal marker analysis, human fetal NSC were differentiated for 3 weeks using L-741,742 (2-4 μM varying at different stages) in the two step growth withdrawal method.
# The differentiated cells were further tested for gene expression of different neuronal lineage markers by RT-qPCR. A series of primers were designed for markers representing both neurotransmitters and domain specific regions as shown in Table 1.
# L-741,742-differentiated neurons show cortical layer V marker. L-741,742-differentiated cells show increased expression of VGLUT1 and NEUROG2. NEUROG2 expression is required for promoting excitatory neurons in the dorsal cortical region during development. To test if L-741,742 promotes or specifies specific cortical layer neurons, a series of primers were designed to mark all layers of cortex; Reelin (layer 1), Tbr1 (layer V1), Ctip2 (Layer V), Satb2 (Layer II-III) and Foxg1 (telenchepalic marker) (Table 1). The expression of these markers in L-741,742-differentiated cells was determined by RT-qPCR. […] Thus, L-741,742-differentiated neurons express cortical layer V marker CTIP2 and telencephalic marker FOXG1, with VGLUT1 expression, indicating differentiation into cortical layer neurons.
# [4] = tested on: human fetal NSC; experiment: GABA staining of differentiated cells, week 1-3; type: cell-based; conditions: 2 week differentiated cells
# Method: Immunocytochemistry. hfNS cells differentiated on coverslips were fixed with 4% paraformaldehyde and permeabilized with 0.3% Triton X100, block with 5% goat serum, and incubated with primary antibody overnight at 4° C. Antibodies included: Beta-III tubulin (1:100 MAB1637), GFAP (1:1000, DAKO), Vglut1 (1:1000, Synaptic system), GABA (1:1000, Sigma). Appropriate fluorescent-conjugated secondary antibodies were used at 1:500 for 1 h at room temperature. Coverslips were mounted with fluorescent mounting medium (DAKO) containing DAPI (1:1000) and cells were imaged using Leica microscope.
# L-741,742-differentiated cells were also tested for GABA staining from week 1-3 and GABA positive cells were present in early in 1 week differentiated cells, showing up to 11% GABA positive neurons in 2 week differentiated cells (FIG. 5).
Molecule,Vglut1-positive staining indicating differentiation into glutamatergic neurons [1],expression of CAMKII (marking glutamatergic neurons) [2],expression of EVT1 (marking lower cortical layer V) [2],expression of MAP2 (marking neurons) [2],expression of VGLUT1 (marking glutamatergic neurons) [2],expression of VGLUT2 (marking glutamatergic neurons) [2],expression of VGLUT3 (marking glutamatergic neurons) [2],Reelin expression ([3]; at the concentration tested),Tbr1 expression ([3]; at the concentration tested),increase in NEUROG2 expression ([3]; compared to the control) [fold],increase in VGLUT1 expression ([3]; compared to the control),increase in CTIP2 expression ([3]; cortical layer V marker),increase in FOXG1 expression ([3]; telencephalic marker) [fold],GABA positive neurons [4]
"Cc1c(C2CCN(CCc3ccccc3)CC2)noc1-c1ccc(Cl)cc1 [L-741,742]",Vglut1-positive staining,increase,increase,increase,increase,increase,increase,not detectable,not detectable,11,15-35 fold,approximately 23 fold,~27,up to 11%
Ifenprodil tartrate,Vglut1-positive staining,,,,,,,,,,,,,
Cl.Cl.Fc1ccc(N2CCN(CCC3OCCc4ccccc43)CC2)cc1 (stereo not shown) [PNU96415E],Vglut1-positive staining,,,,,,,,,,,,,
